Results reported in PubChem BioAssay AID1963840 (Molecular Pharmacology Branch, DTP, NCI, 2024).
pIC50: −log10 of the molar value.

Tested on: 695427-040-R-J1-PDC complex spheroid viability
Test: Anticancer human tumor 695427-040-R-J1-PDC patient-derived colon adenocarcinoma cell line growth inhibition [POLQ]
Details: for pIC50: curve of first compound; for viability, T/C: stronger effect = lower value; active = viability on the fitted dose curve at most 10% of control; inactive = the rest
How it was run: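 Growth inhibition in 3D: complex spheroids (tumor PDC, HUVEC, MSC) treated with POLQ inhibitor combinations; where Cmax unknown, highest tested concentration 10 microM, except SN-38 at 1 microM.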

[1] = second compound 0.0316 µM, first compound 0.0316 µM
[2] = second compound 0.0316 µM, first compound 0.1 µM
[3] = second compound 0.0316 µM, first compound 0.316 µM
[4] = second compound 0.0316 µM, first compound 1 µM
[5] = second compound 0.0316 µM, first compound 3.16 µM
[6] = second compound 0.0316 µM, first compound 10 µM
[7] = second compound 0.1 µM, first compound 0.0316 µM
[8] = second compound 0.1 µM, first compound 0.1 µM
[9] = second compound 0.1 µM, first compound 0.316 µM
[10] = second compound 0.1 µM, first compound 1 µM
[11] = second compound 0.1 µM, first compound 3.16 µM
[12] = second compound 0.1 µM, first compound 10 µM
[13] = second compound 0.316 µM, first compound 0.0316 µM
[14] = second compound 0.316 µM, first compound 0.1 µM
[15] = second compound 0.316 µM, first compound 0.316 µM
[16] = second compound 0.316 µM, first compound 1 µM
[17] = second compound 0.316 µM, first compound 3.16 µM
[18] = second compound 0.316 µM, first compound 10 µM
[19] = second compound 1 µM, first compound 0.0316 µM
[20] = second compound 1 µM, first compound 0.1 µM
[21] = second compound 1 µM, first compound 0.316 µM
[22] = second compound 1 µM, first compound 1 µM
[23] = second compound 1 µM, first compound 3.16 µM
[24] = second compound 1 µM, first compound 10 µM
[25] = second compound 3.16 µM, first compound 0.0316 µM
[26] = second compound 3.16 µM, first compound 0.1 µM
[27] = second compound 3.16 µM, first compound 0.316 µM
[28] = second compound 3.16 µM, first compound 1 µM
[29] = second compound 3.16 µM, first compound 3.16 µM
[30] = second compound 3.16 µM, first compound 10 µM
[31] = second compound 10 µM, first compound 0.0316 µM
[32] = second compound 10 µM, first compound 0.1 µM
[33] = second compound 10 µM, first compound 0.316 µM
[34] = second compound 10 µM, first compound 1 µM
[35] = second compound 10 µM, first compound 3.16 µM
[36] = second compound 10 µM, first compound 10 µM
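Also: spheroids exposed to compounds for seven days.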
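For viability, T/C in this document: 100% = DMSO vehicle control viability.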

COc1cc(C2c3cc4c(cc3C(OC3OC5COC(C)OC5C(O)C3O)C3COC(=O)C23)OCO4)cc(OC)c1O (stereo unspecified) + Cc1cccc(N(C)C(=O)C2C(O)CCN2c2nc(C)cc(C(F)(F)F)c2C#N)c1
inactive: viability, T/C [1] 104% | viability, T/C [2] 89.7% | viability, T/C [3] 107% | viability, T/C [4] 108% | viability, T/C [5] 92.3% | viability, T/C [6] 81.3% | viability, T/C [7] 96.4% | viability, T/C [8] 92.6% | viability, T/C [9] 102% | viability, T/C [10] 93.4% | viability, T/C [11] 96.1% | viability, T/C [12] 84.7% | viability, T/C [13] 95.7% | viability, T/C [14] 89.8% | viability, T/C [15] 102% | viability, T/C [16] 89.8% | viability, T/C [17] 93.2% | viability, T/C [18] 81.9% | viability, T/C [19] 96.2% | viability, T/C [20] 98.7% | viability, T/C [21] 89.9% | viability, T/C [22] 87.9% | viability, T/C [23] 91.9% | viability, T/C [24] 77.1% | viability, T/C [25] 92.8% | viability, T/C [26] 102% | viability, T/C [27] 93.4% | viability, T/C [28] 91.5% | viability, T/C [29] 89.6% | viability, T/C [30] 80.8% | viability, T/C [31] 98% | viability, T/C [32] 80.5% | viability, T/C [33] 90% | viability, T/C [34] 86.8% | viability, T/C [35] 84.3% | viability, T/C [36] 71.1%
< 5.00: pIC50 (second compound 0.0316 µM) | pIC50 (second compound 0.1 µM) | pIC50 (second compound 0.316 µM) | pIC50 (second compound 1 µM) | pIC50 (second compound 3.16 µM) | pIC50 (second compound 10 µM)

COc1cccc2c1C(=O)c1c(O)c3c(c(O)c1C2=O)CC(O)(C(=O)CO)CC3OC1CC(N)C(O)C(C)O1 (stereo unspecified) + Cc1cccc(N(C)C(=O)C2C(O)CCN2c2nc(C)cc(C(F)(F)F)c2C#N)c1
< 5.00: pIC50 (second compound 0.0316 µM) | pIC50 (second compound 0.1 µM) | pIC50 (second compound 0.316 µM) | pIC50 (second compound 1 µM)
5.36: pIC50 (second compound 10 µM)
5.07: pIC50 (second compound 3.16 µM)
inactive: viability, T/C [1] 97.7% | viability, T/C [2] 96.5% | viability, T/C [3] 89.7% | viability, T/C [4] 75.1% | viability, T/C [5] 67.7% | viability, T/C [6] 51% | viability, T/C [7] 105% | viability, T/C [8] 88.3% | viability, T/C [9] 95.6% | viability, T/C [10] 69% | viability, T/C [11] 66.4% | viability, T/C [12] 55.9% | viability, T/C [13] 103% | viability, T/C [14] 91.8% | viability, T/C [15] 89.1% | viability, T/C [16] 72.1% | viability, T/C [17] 78.6% | viability, T/C [18] 55.7% | viability, T/C [19] 97.5% | viability, T/C [20] 83.1% | viability, T/C [21] 87.3% | viability, T/C [22] 75.2% | viability, T/C [23] 67.5% | viability, T/C [24] 53.9% | viability, T/C [25] 96.6% | viability, T/C [26] 87.9% | viability, T/C [27] 83.3% | viability, T/C [28] 75.7% | viability, T/C [29] 64.9% | viability, T/C [30] 46.8% | viability, T/C [31] 81.6% | viability, T/C [32] 78.9% | viability, T/C [33] 73.3% | viability, T/C [34] 57.7% | viability, T/C [35] 56.4% | viability, T/C [36] 41.8%

O=c1[nH]cc(F)c(=O)[nH]1 + Cc1cccc(N(C)C(=O)C2C(O)CCN2c2nc(C)cc(C(F)(F)F)c2C#N)c1
< 5.00: pIC50 (second compound 0.0316 µM) | pIC50 (second compound 0.1 µM) | pIC50 (second compound 0.316 µM) | pIC50 (second compound 1 µM) | pIC50 (second compound 3.16 µM) | pIC50 (second compound 10 µM)
inactive: viability, T/C [1] 105% | viability, T/C [2] 94.5% | viability, T/C [3] 95.2% | viability, T/C [4] 98.1% | viability, T/C [5] 106% | viability, T/C [6] 98.2% | viability, T/C [7] 106% | viability, T/C [8] 102% | viability, T/C [9] 102% | viability, T/C [10] 101% | viability, T/C [11] 109% | viability, T/C [12] 97% | viability, T/C [13] 112% | viability, T/C [14] 102% | viability, T/C [15] 99.1% | viability, T/C [16] 104% | viability, T/C [17] 101% | viability, T/C [18] 99.5% | viability, T/C [19] 105% | viability, T/C [20] 100% | viability, T/C [21] 108% | viability, T/C [22] 101% | viability, T/C [23] 93% | viability, T/C [24] 88.4% | viability, T/C [25] 96% | viability, T/C [26] 103% | viability, T/C [27] 101% | viability, T/C [28] 97.4% | viability, T/C [29] 101% | viability, T/C [30] 103% | viability, T/C [31] 90.6% | viability, T/C [32] 94.8% | viability, T/C [33] 87.5% | viability, T/C [34] 96.3% | viability, T/C [35] 92.8% | viability, T/C [36] 84.8%
